Test systems include TK-10 renal; CCRF-CEM leukemia; KM12 colon; UACC-257 melanoma; NCI-H460 lung; SNB-75 CNS; RXF 393 renal; HCT-116 colon.
What all share (assay): DTP human tumour cell line panel, 48 h

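Briefly, cells in 96-well plates were exposed to five compound concentrations for 48 h, and endpoints were estimated by linear interpolation. Here, GI50 denotes the concentration required for 50% inhibition of growth. TGI marks complete inhibition of growth.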

On to `O=c1nc(N2CCCC2)nc(N2CCCC2)s1`, for which the concentration for total growth inhibition (TGI) in the test on TK-10 renal, with CCRF-CEM leukemia, with KM12 colon, in the test on UACC-257 melanoma, in the test with NCI-H460 lung and in the test on SNB-75 CNS was above 100 µM each time. Besides, the total growth inhibition concentration (TGI) in the test with RXF 393 renal and with HCT-116 colon was above 100 µM throughout.

For `O=C(Cc1ccccc1)N/N=C(/c1nc2ccc([N+](=O)[O-])cc2[nH]c1=O)C(O)c1ccccc1Cl` (stereo unspecified), the total growth inhibition concentration (TGI) in the test with TK-10 renal, in the test on CCRF-CEM leukemia, in the test with KM12 colon, with UACC-257 melanoma, in the test on NCI-H460 lung and in the test on SNB-75 CNS was above 100 µM throughout. The TGI in the test on HCT-116 colon was above 100 µM.

Take `COc1cc(C2C(C(=O)O)=C(COC(C)=O)Oc3cc4c(cc32)OCO4)cc(OC)c1OC(C)=O` (stereo unspecified): the total growth inhibition concentration (TGI) with TK-10 renal, in the test with CCRF-CEM leukemia, in the test with UACC-257 melanoma, in the test on NCI-H460 lung, with SNB-75 CNS and in the test on RXF 393 renal was above 100 µM in each case. The same molecule came in with a TGI in the test with HCT-116 colon above 100 µM.

For the molecule `O=[N+]([O-])c1ccc(/C(Cl)=C/c2ccc(/C=C(\Cl)c3ccc([N+](=O)[O-])cc3[N+](=O)[O-])cc2)c([N+](=O)[O-])c1`, the concentration for total growth inhibition (TGI) in the test on TK-10 renal, in the test on UACC-257 melanoma, in the test on NCI-H460 lung, with SNB-75 CNS, with RXF 393 renal and with HCT-116 colon was above 100 µM in each case.

Take `O=C1NC(=O)C2C1C1C=C3c4ccccc4N(c4ccccc4)C32[C@H]2C(=O)NC(=O)[C@@H]12` (stereo partly specified): the concentration for total growth inhibition (TGI) with TK-10 renal, with CCRF-CEM leukemia, with KM12 colon, in the test with UACC-257 melanoma, in the test with NCI-H460 lung and with SNB-75 CNS was above 100 µM throughout. In the test with HCT-116 colon, the TGI was above 100 µM.

For `Cn1c2cc([N+](=O)[O-])ccc2c(=O)c2c(O)cc3c(c21)C=CC(C)(C)O3`, the concentration for total growth inhibition (TGI) was 89.1 µM in the test with TK-10 renal; above 100 µM in the test with CCRF-CEM leukemia; above 100 µM with KM12 colon; above 100 µM in the test on UACC-257 melanoma; above 100 µM in the test with NCI-H460 lung; 25.7 µM in the test on SNB-75 CNS. In the test on RXF 393 renal, this molecule displayed a TGI of 74.5 µM.

`Cc1ccc(NC(=O)/C(=N\NC(N)=S)C(C#N)c2ccccc2C)cc1C` (stereo unspecified): the TGI in the test on TK-10 renal, with CCRF-CEM leukemia, in the test on KM12 colon, in the test with UACC-257 melanoma, in the test on NCI-H460 lung and with SNB-75 CNS was above 100 µM in each case. This molecule also yielded a TGI in the test on HCT-116 colon above 100 µM.

As for `N#Cc1c(-c2ccccc2)cc(-c2cccs2)c(C#N)c1N`, the TGI with TK-10 renal is above 100 µM; with CCRF-CEM leukemia, above 100 µM; with KM12 colon, above 100 µM; with UACC-257 melanoma, above 100 µM; in the test with NCI-H460 lung it was above 100 µM; in the test on SNB-75 CNS, 55.2 µM. Moreover, in the test with HCT-116 colon, the total growth inhibition concentration (TGI) was above 100 µM.

Regarding `O=C([O-])CCc1ccccc1.O=C([O-])CCc1ccccc1.O=C([O-])CCc1ccccc1.O=C([O-])CCc1ccccc1.[Mo+2].[Mo+2]`, the GI50 in the test with TK-10 renal, with CCRF-CEM leukemia, with KM12 colon, with UACC-257 melanoma, in the test with NCI-H460 lung and in the test on RXF 393 renal was above 100 µM each time. The GI50 with HCT-116 colon was above 100 µM. Also, the TGI in the test with TK-10 renal, in the test on CCRF-CEM leukemia, with KM12 colon, with UACC-257 melanoma, in the test on NCI-H460 lung and in the test on RXF 393 renal was above 100 µM each time. In addition, the TGI in the test with HCT-116 colon was above 100 µM.

Take `N#CC(/C(=N/NC(N)=S)C(=O)Nc1cccc(Cl)c1)c1ccccc1` (stereo unspecified): the TGI in the test with TK-10 renal, with CCRF-CEM leukemia, in the test with KM12 colon, in the test with UACC-257 melanoma, in the test on NCI-H460 lung and in the test with SNB-75 CNS was above 100 µM in each case. In the test on HCT-116 colon, this molecule came in with a concentration for total growth inhibition (TGI) above 100 µM.

Take `O=C1C(=C([O-])c2ccccc2)C(=O)c2ccccc21.O=C1C(=C([O-])c2ccccc2)C(=O)c2ccccc21.[Co+2]`: the GI50 in the test on TK-10 renal was above 100 µM; in the test on CCRF-CEM leukemia it was 38.6 µM; in the test on KM12 colon, above 100 µM; with UACC-257 melanoma, 90.8 µM; in the test on SNB-75 CNS it was above 100 µM; in the test on HCT-116 colon, above 100 µM. The TGI with TK-10 renal, in the test with CCRF-CEM leukemia, in the test on KM12 colon, in the test with UACC-257 melanoma, in the test with SNB-75 CNS and in the test on HCT-116 colon was above 100 µM throughout.

Take `C=C(COC(C)=O)CC(/C=C(\C)CC/C=C(\C)CO)OC(C)=O` (stereo unspecified): the total growth inhibition concentration (TGI) in the test on TK-10 renal, in the test on CCRF-CEM leukemia, in the test on KM12 colon, in the test on NCI-H460 lung, in the test on SNB-75 CNS and in the test with RXF 393 renal was above 100 µM in each case. In addition, the concentration for total growth inhibition (TGI) in the test with HCT-116 colon was above 100 µM.

The record behind these values is PubChem BioAssay (NCI).
